Patent publication US8592452B2, “Cyclic amine compound” (Takeda Pharmaceutical Company Limited, priority 2005, dated 2013)
Numbering of substitutions follows the chain as printed. Read-outs that look alike come from different tables or passages of the source.

Columns and labels:
[1] = biological target: T1, AR having LNCaP-type mutation (Homo sapiens, UniProt P10275, T878A); experiment: AR binding inhibitory test (LNCaP-type), radiolabeled mibolerone; details: 100 nM compound, 3 nM radiolabeled mibolerone, 4° C. 3 hr
T1 sequence (P10275 1-920 T878A): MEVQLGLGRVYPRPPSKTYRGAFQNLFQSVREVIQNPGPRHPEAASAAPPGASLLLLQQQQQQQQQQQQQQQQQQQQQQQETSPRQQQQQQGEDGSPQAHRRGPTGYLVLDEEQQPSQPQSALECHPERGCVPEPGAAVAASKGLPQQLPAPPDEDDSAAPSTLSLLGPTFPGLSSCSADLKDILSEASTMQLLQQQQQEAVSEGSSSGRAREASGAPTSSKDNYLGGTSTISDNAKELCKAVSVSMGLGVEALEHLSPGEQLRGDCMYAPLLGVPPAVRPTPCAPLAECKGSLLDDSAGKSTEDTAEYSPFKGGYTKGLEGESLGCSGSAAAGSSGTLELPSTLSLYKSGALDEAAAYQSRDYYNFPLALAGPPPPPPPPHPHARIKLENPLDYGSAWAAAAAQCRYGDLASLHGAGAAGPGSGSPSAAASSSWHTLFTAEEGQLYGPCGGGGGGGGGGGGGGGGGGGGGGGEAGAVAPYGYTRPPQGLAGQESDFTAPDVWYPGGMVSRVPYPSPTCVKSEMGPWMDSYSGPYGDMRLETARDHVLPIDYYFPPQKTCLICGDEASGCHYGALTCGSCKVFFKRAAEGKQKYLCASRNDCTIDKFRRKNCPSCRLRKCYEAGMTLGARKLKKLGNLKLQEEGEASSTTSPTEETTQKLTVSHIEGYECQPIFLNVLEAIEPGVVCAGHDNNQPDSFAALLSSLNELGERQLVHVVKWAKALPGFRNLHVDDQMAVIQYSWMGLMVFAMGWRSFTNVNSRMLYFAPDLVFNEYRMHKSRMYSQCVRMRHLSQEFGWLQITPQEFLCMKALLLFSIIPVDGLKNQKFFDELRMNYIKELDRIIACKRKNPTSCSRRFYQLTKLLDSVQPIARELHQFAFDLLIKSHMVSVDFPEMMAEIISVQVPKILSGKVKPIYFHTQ
Experimental: (§1) To a solution containing a wild-type androgen receptor (AR) or AR having LNCaP-type mutation were added 3 nM radiolabeled mibolerone and 100 nM compound. After the solution was incubated at 4° C. for 3 hr, B (Bound)/F (Free) separation was performed by the dextran/charcoal method. The label count of B was measured, and the inhibitory rate of the compound was calculated.

[2] = biological target: T2, wild-type androgen receptor (AR) (Homo sapiens, UniProt P10275); experiment: AR binding inhibitory test (wild-type), radiolabeled mibolerone; details: 100 nM compound, 3 nM radiolabeled mibolerone, 4° C. 3 hr, read-out: Inhibitory rate (%) at 100 nM wild-type
T2 sequence (P10275 1-920): T1 sequence (P10275 1-920 T878A) with A878T
Experimental: as §1

[3] = biological target: T3, AR (wild-type) (Homo sapiens, UniProt P10275); experiment: Reporter assay system using Cos7 cell, luciferase under androgen responsive promoter of two tandem PSA promoter regions; type: cell-based; details: 100 nM compound, 24 hr, luciferase activity with 1 μM 5α-dihydrotestosterone as 100
T3 construct: expressed in transfected cells; host or cells: Cos-7
T3 sequence (P10275 1-920): T1 sequence (P10275 1-920 T878A) with A878T
Experimental: Cos-7 (5,000,000 cells) were sown in a flask (150 cm^2), and cultured in a culture medium (DMEM medium containing 10% Dextran Charcoal (DCC)-Fetal Bovine Serum (FBS) and 2 mM glutamine) for 24 hr. A vector DNA containing AR gene, and a vector DNA prepared by binging luciferase gene at the downstream of an androgen responsive promoter prepared by ligating two PSA promoter regions in tandem were co-transfected by the liposome method. After culture for 2 hr, the cells were harvested, 10,000 cells were plated on a 96 well plate and cultured for 3 hr, after which 1 μM of 5α-dihydrotestosterone or 100 nM of a compound was added thereto. After culture for 24 hr, luciferase activity was determined. The induction rate by the compound was determined with the luciferase activity induced by addition of 1 μM of 5α-dihydrotestosterone as 100.

[4] = tested on: human prostate cancer cell line LNCaP-FGC; experiment: PSA production test in human prostate cancer cell line; type: cell-based; details: 3 days, vehicle as 0, 350 nM testosterone as 100, test compound final concentration 0.1-1000 nM (concentration not given)
Experimental: The human prostate cancer cell line LNCaP-FGC was plated on a 96 well plate at 5,000 cells/100 μL/well. The next day, a test compound (final concentration 0.1-1000 nM), or a vehicle (control) or testosterone (final concentration 0.35-350 nM) was added thereto, and the culture supernatant was recovered 3 days after the drug addition. The concentration of PSA (Prostate Specific Antigen) produced in an androgen-dependent manner in the culture supernatant was measured by ELISA. The PSA production promotion rate by the test compound was calculated with vehicle addition group as 0 and 350 nM testosterone addition group as 100.

[5] = biological target: T3, AR (wild-type); experiment: Reporter assay system using Cos7 cell, luciferase under MMTV-derived androgen responsive promoter; type: cell-based; details: 100 nM compound, 24 hr, luciferase activity with 1 μM 5α-dihydrotestosterone as 100
Experimental: Cos-7 (5,000,000 cells) were sown in a flask (150 cm^2), and cultured in a culture medium (DMEM medium containing 10% Dextran Charcoal (DCC)-Fetal Bovine Serum (FBS) and 2 mM glutamine) for 24 hr. A vector DNA containing AR gene, and a vector DNA prepared by binging luciferase gene at the downstream of an MMTV (Mouse Mammary Tumor Virus)-derived androgen responsive promoter were co-transfected by the liposome method. After culture for 2 hr, the cells were harvested, 10,000 cells were plated on a 96 well plate and cultured for 3 hr, after which 1 μM of 5α-dihydrotestosterone or 100 nM of a compound was added. After culture for 24 hr, luciferase activity was determined. The induction rate by the compound was determined with the luciferase activity induced by addition of 1 μM of 5α-dihydrotestosterone as 100.

[6] = Table 3, read-out: Inhibitory rate (%) at 100 nM LNCaP-type
[7] = Table 6, read-out: Inhibitory rate (%) at 100 nM LNcap-type

SMILES | inhibition at 0.1 µM [1, 6] | inhibition at 0.1 µM ([2]; Table 3) | Induction rate (%) at 100 nM wild-type [3] | PSA production promotion rate (%) [4] | Induction rate (%) at 100 nM wild-type [5] | inhibition at 0.1 µM [1, 7] | inhibition at 0.1 µM ([2]; Table 6)
Cc1c(N2CC[C@H](C(C)(C)O)[C@@H]2C)ccc(C#N)c1Cl [Compound 2, 2-chloro-4-[(2S,3S)-3-(1-hydroxy-1-methylethyl)-2-methylpyrrolidin-1-yl]-3-methylbenzonitrile] | 99% | 99% | 71% | 103% | – | – | –
C[C@H]1[C@@H](C(C)(C)O)CCN1c1ccc(C#N)c(Cl)c1 [Compound 3, 2-chloro-4-[(2S,3S)-3-(1-hydroxy-1-methylethyl)-2-methylpyrrolidin-1-yl]benzonitrile] | 99% | 98% | 57% | 81% | – | – | –
C[C@H]1[C@@H](C(C)(C)O)CCN1c1ccc(C#N)c(Cl)c1F [Compound 53, 2-chloro-3-fluoro-4-[(2S,3S)-3-(1-hydroxy-1-methylethyl)-2-methylpyrrolidin-1-yl]benzonitrile] | – | – | – | – | 33% | 98% | 98%
C[C@H]1[C@@H](C(C)(C)O)CCN1c1ccc(C#N)c(Br)c1 [Compound 71, 2-bromo-4-[(2S,3S)-3-(1-hydroxy-1-methylethyl)-2-methylpyrrolidin-1-yl]benzonitrile] | – | – | – | – | 31% | 97% | 99%
C[C@H]1[C@@H](C(C)(C)O)CCN1c1ccc(C#N)c(Cl)c1Cl [Compound 75, 2,3-dichloro-4-[(2S,3S)-3-(1-hydroxy-1-methylethyl)-2-methylpyrrolidin-1-yl]benzonitrile] | – | – | – | – | 60% | 99% | 99%
C[C@H]1[C@@H](C(C)(C)O)CCN1c1ccc(C#N)cc1C(F)(F)F [Compound 80, 4-[(2S,3S)-3-(1-hydroxy-1-methylethyl)-2-methylpyrrolidin-1-yl]-3-(trifluoromethyl)benzonitrile] | – | – | – | – | 22% | 95% | 97%
CC(C)[C@H]1[C@@H](O)CCN1c1ccc(C#N)c(C(F)(F)F)c1 [Compound 82, 4-[(2S,3S)-3-hydroxy-2-isopropylpyrrolidin-1-yl]-2-(trifluoromethyl)benzonitrile] | – | – | – | – | 90% | 97% | 98%
